Like-named read-outs stand apart in the source and are kept apart here.
Target: CFTR (Homo sapiens, UniProt P13569)
Experiment: Membrane potential dye, Enteroid Assay A
Assay type: cell-based
Conditions: for Ent. A Max Activity: chloride transport as % of triple combination control (Enteroid Assay A); for EC50: human enteroid cells, 18-24 hours, acute 10 μM forskolin and 300 nM ivacaftor, read-out: Ent. A EC50
Method in brief: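 % Activity: chloride transport relative to a 3 μM/3 μM corrector pair plus 300 nM acute potentiator control. Primary human enteroid cells, 18-24 h compound exposure at 37 °C; membrane potential dye (methyl oxonol) fluorescence over 15 min after forskolin (10 μM)/IBMX (100 μM)/Compound III (300 nM) stimulation in chloride-free buffer.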

Sequence of CFTR (P13569 with tags, fused parts or gaps DEL508-508): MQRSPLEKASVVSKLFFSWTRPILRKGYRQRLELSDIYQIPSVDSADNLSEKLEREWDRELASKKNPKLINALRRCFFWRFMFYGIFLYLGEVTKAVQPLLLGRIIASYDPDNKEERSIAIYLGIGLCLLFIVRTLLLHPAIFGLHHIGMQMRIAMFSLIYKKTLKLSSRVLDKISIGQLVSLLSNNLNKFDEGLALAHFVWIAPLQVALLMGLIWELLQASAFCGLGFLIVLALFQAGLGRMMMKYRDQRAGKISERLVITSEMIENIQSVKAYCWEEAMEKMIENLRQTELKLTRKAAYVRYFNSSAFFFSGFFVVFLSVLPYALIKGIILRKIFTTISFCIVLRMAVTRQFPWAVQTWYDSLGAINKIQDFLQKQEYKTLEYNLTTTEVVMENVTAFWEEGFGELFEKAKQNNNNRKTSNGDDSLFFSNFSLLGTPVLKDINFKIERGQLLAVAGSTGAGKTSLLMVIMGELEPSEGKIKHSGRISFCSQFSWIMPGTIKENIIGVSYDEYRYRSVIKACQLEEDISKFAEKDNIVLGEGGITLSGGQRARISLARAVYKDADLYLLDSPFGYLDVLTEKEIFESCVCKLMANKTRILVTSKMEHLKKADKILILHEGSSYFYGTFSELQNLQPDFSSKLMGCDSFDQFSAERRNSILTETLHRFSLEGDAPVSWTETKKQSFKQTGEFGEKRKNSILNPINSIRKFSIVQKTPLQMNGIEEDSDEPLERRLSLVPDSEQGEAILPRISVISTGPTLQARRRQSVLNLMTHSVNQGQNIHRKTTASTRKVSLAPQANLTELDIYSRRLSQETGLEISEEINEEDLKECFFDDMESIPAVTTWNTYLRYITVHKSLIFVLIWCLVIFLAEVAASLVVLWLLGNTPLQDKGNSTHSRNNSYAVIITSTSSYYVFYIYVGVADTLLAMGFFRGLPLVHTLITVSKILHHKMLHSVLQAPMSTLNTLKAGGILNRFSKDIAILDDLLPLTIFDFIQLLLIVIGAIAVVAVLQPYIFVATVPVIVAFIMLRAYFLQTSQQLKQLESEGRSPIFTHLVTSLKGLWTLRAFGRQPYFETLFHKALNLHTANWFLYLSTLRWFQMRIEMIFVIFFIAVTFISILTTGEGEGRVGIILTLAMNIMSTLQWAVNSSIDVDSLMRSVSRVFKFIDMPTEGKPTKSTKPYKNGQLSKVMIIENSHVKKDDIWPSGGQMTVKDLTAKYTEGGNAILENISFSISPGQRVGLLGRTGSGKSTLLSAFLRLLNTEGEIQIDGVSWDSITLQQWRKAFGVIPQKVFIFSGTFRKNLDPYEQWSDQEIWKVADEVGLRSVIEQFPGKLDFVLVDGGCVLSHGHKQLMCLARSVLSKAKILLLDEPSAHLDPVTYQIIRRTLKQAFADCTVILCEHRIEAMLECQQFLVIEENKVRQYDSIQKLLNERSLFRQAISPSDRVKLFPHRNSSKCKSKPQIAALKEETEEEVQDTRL

| Ent. A Max Activity (Table 7) | EC50 (Table 7) | Ent. A Max Activity (Table 6) | EC50 (Table 6) | Compound |
| --- | --- | --- | --- | --- |
| + (+ is <30%) | – | – | – | Cc1cccc(C)c1-c1cc2nc(n1)NS(=O)(=O)c1cccc(c1)C(=O)N(C)C[C@H](c1ccc(-c3ccc(C(C)(C)C)cc3)cn1)O2 [Compound 509] |
| + (+ is <30%) | – | – | – | Cc1cccc(C)c1-c1cc2nc(n1)NS(=O)(=O)c1cccc(c1)CN(C(=O)CC1CCOCC1)[C@H](CC(C)C)CO2 [Compound 45, (11R)-6-(2,6-Dimethylphenyl)-11-(2-methylpropyl)-12-[2-(oxan-4-yl)acetyl]-9-oxa-2λ^6-thia-3,5,12,19-tetraazatricyclo[12.3.1.14,8]nonadeca-1(17),4,6,8(19),14(18),15-hexaene-2,2-dione] |
| +++ (+++ is >60%) | < 1000 nM | – | – | Cc1cccc(C)c1-c1cc2nc(n1)NS(=O)(=O)c1cccc(c1)C(=O)N(Cc1ccc(N3CCCC3)nc1)[C@H](CC(C)C)CO2 [Compound 961] |
| +++ (+++ is >60%) | < 1000 nM | – | – | Cc1cccc(C)c1-c1cc2nc(n1)NS(=O)(=O)c1cccc(c1)C(=O)N(Cc1ccc(OCCN(C)C)nc1)[C@H](CC(C)C)CO2 [Compound 942] |
| – | – | +++ (+++ is >60%) | < 1000 nM | Cc1cccc(C)c1-c1cc2nc(n1)NS(=O)(=O)c1cccc(c1)C(=O)N(Cc1ccc(C3CCN(C)CC3)cc1)[C@H](CC(C)C)CO2 [Compound 87, (11R)-6-(2,6-Dimethylphenyl)-11-isobutyl-12-[[4-(1-methyl-4-piperidyl)phenyl]methyl]-2,2-dioxo-9-oxa-2λ^6-thia-3,5,12,19-tetrazatricyclo[12.3.1.14,8]nonadeca-1(18),4(19),5,7,14,16-hexaen-13-one] |
| – | – | + (+ is <30%) | – | Cc1cccc(C)c1-c1cc2nc(n1)NS(=O)(=O)c1cccc(c1)C(=O)N(CCC1CCOCC1)[C@H](CCC1(C(F)(F)F)CC1)CO2 (single isomer, unassigned) [Compound 73, 6-(2,6-dimethylphenyl)-2,2-dioxo-12-(2-tetrahydropyran-4-ylethyl)-11-[2-[1-(trifluoromethyl)cyclopropyl]ethyl]-9-oxa-2λ^6-thia-3,5,12,19-tetrazatricyclo[12.3.1.14,8]nonadeca-1(18),4(19),5,7,14,16-hexaen-13-one] |
| + (+ is <30%) | < 1000 nM | – | – | Cc1cccc(C)c1-c1cc2nc(n1)NS(=O)(=O)c1cccc(c1)C(=O)N(CCC(C)(C)C)[C@H](C)CO2 [Compound 987] |
| – | – | +++ (+++ is >60%) | < 1000 nM | Cc1cccc(C)c1-c1cc2nc(n1)NS(=O)(=O)c1cccc(c1)C(=O)N(CC1CCOC1)[C@H](CC(C)C)CO2 (stereo partly shown) [Compound 357] |
| ++ (++ is 30-60%) | < 1000 nM | – | – | Cc1cccc(C)c1-c1cc2nc(n1)NS(=O)(=O)c1cccc(c1)CN(Cc1ccccc1-c1ccccc1)[C@H](CC(C)C)CO2 [Compound 1034] |
| + (+ is <30%) | 1000 to 3000 nM | – | – | CNC(=O)c1ccc(CN2C(=O)c3cccc(c3)S(=O)(=O)Nc3nc(cc(-c4c(C)cccc4C)n3)OC[C@H]2CC2(C(F)(F)F)CC2)cc1 [Compound 682] |
| – | – | ++ (++ is 30-60%) | 3000 to 30000 nM | Cc1cccc(C)c1-c1cc2nc(n1)NS(=O)(=O)c1cccc(c1)C(=O)N(C)CC(c1ccc(C3=CCN(C)CC3)cc1)O2 (stereo not shown) [Compound 676] |
| ++ (++ is 30-60%) | < 1000 nM | – | – | CCc1nccc(CN2Cc3cccc(c3)S(=O)(=O)Nc3nc(cc(-c4c(C)cccc4C)n3)OC[C@H]2CC(C)C)n1 [Compound 1035] |
| +++ (+++ is >60%) | < 1000 nM | – | – | Cc1cccc(C)c1-c1cc2nc(n1)NS(=O)(=O)c1cccc(c1)C(=O)N(Cc1ccc(N3CCCC(O)C3)nc1)[C@H](CC(C)C)CO2 (stereo partly shown) [Compound 963] |
| ++ (++ is 30-60%) | 1000 to 3000 nM | – | – | COc1ccc(CN2C(=O)c3cccc(c3)S(=O)(=O)Nc3nc(cc(-c4c(C)cccc4C)n3)OC[C@H]2C)cc1 [Compound 986] |
| +++ (+++ is >60%) | < 1000 nM | – | – | Cc1cccc(C)c1-c1cc2nc(n1)NS(=O)(=O)c1cccc(c1)CN(Cc1cc(C)c3[nH]ncc3c1)[C@H](CC(C)C)CO2 [Compound 1027] |
| +++ (+++ is >60%) | < 1000 nM | – | – | CCN(CCO)c1ccc(CN2C(=O)c3cccc(c3)S(=O)(=O)Nc3nc(cc(-c4c(C)cccc4C)n3)OC[C@H]2CC(C)C)cn1 [Compound 935] |
| ++ (++ is 30-60%) | < 1000 nM | – | – | Cc1cccc(C)c1-c1cc2nc(n1)NS(=O)(=O)c1cccc(c1)CN(CCc1ccccc1)[C@H](CC(C)C)CO2 [Compound 1040] |
